Reference: patent EP0416746A2 (priority 1989, dated 1991)
Like-named read-outs stand apart in the source and are kept apart here.

Columns and labels:
[1] = test system: Venturia inaequalis; conditions: in vivo
[2] = test system: Pellicularia sasakii; type: in vivo
[3] = test system: Plasmopara viticola; type: in vivo
[4] = test system: Pyricularia oryzae; type: in vivo; conditions: active = greater than 50% control of the disease at 125 ppm (w/v) or less; spray or stem base drench; rice blast
[5] = test system: Phytophthora infestans; type: in vivo; conditions: active = greater than 50% control of the disease at 125 ppm (w/v) or less; spray or stem base drench; late tomato blight
[6] = test system: Erysiphe graminis; type: in vivo; conditions: active = greater than 50% control of the disease at 125 ppm (w/v) or less; spray or stem base drench; barley powdery mildew
[7] = test system: Botrytis cinerea; type: in vivo; conditions: active = greater than 50% control of the disease at 125 ppm (w/v) or less; spray or stem base drench; grey mould of tomato

Structure (SMILES)	VI [1]	PS ([2]; in vivo)	PV ([3]; active = greater than 50% control of the disease at 125 ppm (w/v) or less, spray or stem base drench, vine downy mildew)	PO [4]	PS ([2]; active = greater than 50% control of the disease at 125 ppm (w/v) or less, spray or stem base drench, rice sheath blight)	PI [5]	EG [6]	BC [7]	PV ([3]; in vivo)
CO/C=C(/C(=O)OC)c1ccccc1CSC(C)=O [Compound 3, methyl (E)-2-[2-(acetylthiomethyl)phenyl]-3-methoxy-2-propenoate]	+ (key: + = active)	+ (key: + = active)							
CO/C=C(/C(=O)OC)c1ccccc1CSC(=O)C(C)(C)C [Compound 2]			+ (+ = active)	+ (+ = active)	+ (+ = active)	+ (+ = active)	+ (+ = active)	+ (+ = active)	
CO/C=C(/C(=O)OC)c1ccccc1CSC(=O)c1ccccc1 [Compound 1, methyl (E)-2-[2-(benzoylthiomethyl)phenyl]-3-methoxy-2-propenoate]	+ (key: + = active)					+ (+ = active)			+ (key: + = active)
CO/N=C(/C(=O)OC)c1ccccc1CSC(=O)c1ccccc1 [Compound 12, methyl (E)-2-[2-(benzoylthiomethyl)phenyl]-(methoxyimino)acetate]	+ (key: + = active)								+ (key: + = active)
